≈ marks a conversion by molar mass, not a printed value.
Key:
Twospotted Spider Mite [1] = assay: Test 1 miticidal test against adult female twospotted spider mite; type: in vivo, Teranychus urticae Koch; details: Tetranychus urticae, 48 h, 2 days after treatment, read-out: Corrected mite mortality
Text: Test 1 (Miticidal Test against Adult Female Twospotted Spider Mite)
(§1) Each of polyethylene-made cups having a diameter of 55 mm and filled with water was covered with a lid through which a hole having a diameter of 10 mm was formed centrally. Absorbent cotton was suspended through the hole of the lid so as to absorb water. A sheet of filter paper was placed on the lid. Two bean leaf disks were place don the filter paper so that the disks were always supplied with water. Using a writing brush, adult female two spotted spider mites were inoculated at a rate of 10 mites per leaf disk. Twenty-four hours later, abnormal mites were removed, and wettable powders which had been prepared in accordance with the procedures of Preparation Examples 4-6 respectively were separately diluted to a predetermined concentration and sprayed to apply 2 mg/cm^2 of the respective agrochemical solutions. The test was conducted dually. Two days after the treatment with the agrochmical solutions, it was determined through a stereoscopic microscope whether the mites were alive or dead. The corrected mite mortality was calculated in accordance with the following equation. [formula]

[2] = Test 11 acute toxicity test (oral), rat; design: species or system rat (F344); details: in vivo, male
Text: (§2) Test 11 (Acute Toxicity Test)
(§3) The acute toxicity (oral) of one of the compounds of this invention was investigated using rats (male and female, F344, 7 weeks old) and mice (male and female, B6 C3 F1, 7 weeks old).

Asiatic Rice Borer = assay: Test 5 insecticidal test against Asiatic rice borer; type: in vivo, Chilo suppressalis Walker; details: Chilo suppressalis, 120 h, 3rd-instar larvae, 5 days, 25° C.
Experimental: (§4) Test 5 (Insecticidal Test against Asiatic Rice Borer) Wettable powders which had been prepared following the procedures of Preparation Examples 4-6 respectively were diluted with water to a predetermined concentration. Sprouted unhulled rice seeds were dipped in the resultant solutions and then dried in the air. They were placed separately in polyethylene-made cups having a diameter of 55 mm. Ten 3rd-instar larvae of asiatic rice borer were placed in each cup. The larvae were reared for 5 days in a constant-temperature chamber of 25° C. The test was conducted dually. The numbers of dead larvae were counted after the rearing, whereby mortality values of asiatic rice borer were calculated.

Toxocara cati = assay: Test 9 test against cat nematode; type: in vivo, Toxocara cati (in cats); details: cats
Experimental: Test 9 (Test against Cat Nematode) A test was conducted using cats which had been infected naturally with Toxocara cati. Namely, 4 hybrid cats infected with the nematode were administered with KSB-1939H2 of this invention at a dosage of 0.05 mg/kg-body weight in the case of subcutaneous administration or at a dosage of 0.1 mg/kg-body weight in the case of oral administration. Evaluation was conducted by comparing the number of eggs contained in feces excreted from each cat before the treatment with that of eggs contained in feces excreted from the cat after the treatment.

Solubility = type: physicochemical; details: for Solubility in organic solvents: methanol, acetone, ethyl acetate, chloroform and hexane
Ancylostoma caninum = assay: Test 8 test against dog nematodes (Ancylostoma caninum); type: in vivo, Ancylostoma caninum (in dogs); details: dogs, once
Experimental: (§5) Test 8 (Test against Dog Nematodes) A test was conducted using dogs which had been infected naturally with Ancylostoma caninum or Toxocara canis. Namely, using 8 hybrid dogs of 2 months old, KSB-1939H2 according to this invention was administered subcutaneously at a dosage of 0.1 mg/kg-body weight or orally at a dosage of 0.5 mg/kg-body weight. Administration was effected only once. Evaluation was conducted by comparing the number of eggs contained in feces excreted from each dog before the treatment with that of eggs contained in feces excreted from the dog after the treatment.

Twospotted Spider Mite [3] = assay: Test 2 LC50 against twospotted spider mite; type: in vivo, Teranychus urticae Koch; details: 48 h; for LC50: Tetranychus urticae, following procedure of Test 1
Text: as §1
(§6) Following the procedure of Test 1, tests were conducted with respect to Kanzawa spider mite and twospotted spider mite so that their LC50 values were determined. Milbemycin was used as a control.

[4] = Test 11 acute toxicity test (oral), mouse; design: species or system mouse (B6 C3 F1); details: in vivo, male
Text: as §2, §3

[5] = Distinction of basic, acidic or neutral; type: physicochemical
Toxocara canis = assay: Test 8 test against dog nematodes (Toxocara canis); type: in vivo, Toxocara canis (in dogs); details: dogs, once
Experimental: as §5

[6] = system: microfilariae of Dirofilaria immitis; assay: microbe, parasite or virus in culture; details: 240 h, read-out: LD50
Brown Rice Planthopper = assay: Test 3 insecticidal test against brown rice planthopper; type: in vivo, Nilaparvata lugens Stal; details: 120 h, larvae, 5 days, 25° C.
Experimental: Test 3 (Insecticidal Test against Brown Rice Planthopper) Wettable powders which had been prepared following the procedures of Preparation Examples 4-6 respectively were diluted with water to a predetermined concentration. Rice stems and leaves were dipped in the resultant solutions and then dried in the air. They were placed in test tubes. Ten brown rice planthopper larvae were placed in each test tube. The test tubes were plugged with absorbent cotton and the larvae were reared for 5 days in a constant-temperature chamber of 25° C. The test was conducted dually. The numbers of larvae were counted after the rearing, whereby mortality values of brown rice planthopper were calculated.

Kanzawa spider mite = assay: Test 2 LC50 against Kanzawa spider mite; type: in vivo, Tetranychus kanzawai Kishida; details: 48 h; for LC50: Tetranychus kanzawai, following procedure of Test 1
Text: as §1, §6

Diamondback Moth = assay: Test 4 insecticidal test against diamondback moth; type: in vivo; details: Plutella xylostella, 120 h, 3rd-instar larvae, 5 days, 25° C.
Experimental: Test 4 (Insecticidal Test against Diamondback Moth)
as §4, with “Wettable” for “Test 5 (Insecticidal Test against Asiatic Rice Borer) Wettable”, “Cabbage leaves” for “Sprouted unhulled rice seeds”, “placed” for “placed separately”, “polyethylene-madecups” for “polyethylene-made cups”, “diamondback moth” for “asiatic rice borer”

Haemonchus concurtus = assay: Test 10 test against sheep nematode; type: in vivo, Haemonchus concurtus (in sheep); details: oral drench into rumen, once
Experimental: Test 10 (Test against Sheep Nematode) A test was conducted using sheep which had been infected with Haemonchus concurtus. Namely, KSB-1939H4 of this invention was formulated into oral drenches. Four sheep which had been infected artificially with Haemonchus concurtus were administered with the compound by injecting the oral drenches into their rumens respectively. They were treated only once by a single dosage of 0.5 mg/kg-body weight or 1.0 mg/kg-body weight. Evaluation was conducted by comparing the number of eggs contained in feces excreted from each sheep before the treatment with that of eggs contained in feces excreted from the sheep after the treatment.

Compound `CC(C)=CC(=O)OCC1=CC2C(=O)OC3CC(CC=C(C)CC(C)C=CC=C4COC(C1O)C42O)OC1(CCC(C)C(C)O1)C3` (stereo not shown) [KSB-1939H2] has a mortality at 0.004 ppm (Twospotted Spider Mite [1]; 0.004 ppm) of 70.1%, a mortality at 0.2 ppm (Twospotted Spider Mite [1]) of 100% and a mortality at 1 ppm (Twospotted Spider Mite [1]) of 100%. The LD50 [2] was greater than 5000 mg/kg, the mortality at 0.2 ppm (Asiatic Rice Borer) was 90% and the mortality at 1 ppm (Asiatic Rice Borer) was 100%. For the same compound, the “activities (eggs in feces before and after treatment)” value (shortened to “activities”) (Toxocara cati; oral 0.1 mg/kg) was 100%, the “activities” value (Toxocara cati; subcutaneous 0.05 mg/kg) was 100% and the “Solubility in organic solvents” value (Solubility) was “Soluble”. The Solubility in water (Solubility) was “Insoluble”, the “activities” value (Ancylostoma caninum; oral 0.5 mg/kg) was 100% and the “activities” value (Ancylostoma caninum; subcutaneous 0.1 mg/kg) was 100%. For the same compound, the LC50 (Twospotted Spider Mite [3]) was 0.0249 µg/mL (≈ 0.0397 µM), the LD50 [4] was greater than 5000 mg/kg and the “Distinction of basic, acidic or neutral” value [5] was “Neutral”. The “activities” value (Toxocara canis; oral 0.5 mg/kg) was 100%, the “activities” value (Toxocara canis; subcutaneous 0.1 mg/kg) was 100% and the LC50 [6] was 3.4 µg/mL (≈ 5.42 µM). It also gave a mortality at 1 ppm (Brown Rice Planthopper) of 95%, a mortality at 5 ppm (Brown Rice Planthopper) of 100% and an LC50 (Kanzawa spider mite) of 0.0465 µg/mL (≈ 0.0742 µM).

`CC1=CCC2CC(CC3(CCC(C)C(C)O3)O2)OC(=O)C2C=C(COC(=O)CC(C)C)C(O)C3OCC(=CC=CC(C)C1)C23O` (stereo not shown) [KSB-1939H3] showed a mortality at 0.2 ppm (Twospotted Spider Mite [1]) of 100%, a mortality at 1 ppm (Twospotted Spider Mite [1]) of 100% and a mortality at 5 ppm (Twospotted Spider Mite [1]) of 100%. For the same compound, the mortality at 25 ppm (Diamondback Moth) was 100%, the “Solubility in organic solvents” value (Solubility) was “Soluble” and the Solubility in water (Solubility) was “Insoluble”. The LD50 [4] was greater than 5000 mg/kg, the “Distinction of basic, acidic or neutral” value [5] was “Neutral” and the LC50 [6] was 1.5 µg/mL (≈ 2.39 µM). For the same compound, the mortality at 5 ppm (Brown Rice Planthopper) was 65% and the mortality at 25 ppm (Brown Rice Planthopper) was 100%.

Compound `CCC(C)=CC(=O)OCC1=CC2C(=O)OC3CC(CC=C(C)CC(C)C=CC=C4COC(C1O)C42O)OC1(CCC(C)C(C)O1)C3` (stereo not shown) [KSB-1939H4] has a mortality at 0.04 ppm (Twospotted Spider Mite [1]) of 94.2%, a mortality at 0.2 ppm (Twospotted Spider Mite [1]) of 100% and a mortality at 1 ppm (Twospotted Spider Mite [1]) of 100%. For the same compound, the mortality at 0.2 ppm (Asiatic Rice Borer) was 90%, the mortality at 1 ppm (Asiatic Rice Borer) was 100% and the “Solubility in organic solvents” value (Solubility) was “Soluble”. For the same compound, the Solubility in water (Solubility) was “Insoluble”, the “Distinction of basic, acidic or neutral” value [5] was “Neutral” and the “activities” value (Haemonchus concurtus; 0.5 mg/kg) was 80-90%. For the same compound, the “activities” value (Haemonchus concurtus; 1.0 mg/kg) was 100%, the LC50 [6] was 3.3 µg/mL (≈ 5.15 µM) and the mortality at 1 ppm (Brown Rice Planthopper) was 65%. The mortality at 5 ppm (Brown Rice Planthopper) was 100%.

In the case of `CC1=CCC2CC(CC3(CCC(C)C(C)O3)O2)OC(=O)C2C=C(COC(=O)CCC(C)C)C(O)C3OCC(=CC=CC(C)C1)C23O` (stereo not shown) [KSB-1939H5], the mortality at 1 ppm (Twospotted Spider Mite [1]) is reported as 100%, the mortality at 5 ppm (Twospotted Spider Mite [1]) is reported as 100% and the mortality at 25 ppm (Diamondback Moth) is reported as 100%. For the same compound, the mortality at 0.2 ppm (Asiatic Rice Borer) was 90%, the mortality at 1 ppm (Asiatic Rice Borer) was 100% and the “Solubility in organic solvents” value (Solubility) was “Soluble”. For the same compound, the Solubility in water (Solubility) was “Insoluble”, the “Distinction of basic, acidic or neutral” value [5] was “Neutral” and the LC50 [6] was 1.6 µg/mL (≈ 2.49 µM). The mortality at 25 ppm (Brown Rice Planthopper) was 95%.

For `CC1=CCC2CC(CC3(CCC(C)C(C)O3)O2)OC(=O)C2C=C(COC(=O)C(C)C)C(O)C3OCC(=CC=CC(C)C1)C23O` (stereo not drawn) [KSB-1939L3α], the “Solubility in organic solvents” value (Solubility) was “Soluble”, the Solubility in water (Solubility) was “Insoluble” and the “Distinction of basic, acidic or neutral” value [5] was “Neutral”.

In the case of `CCCC(=O)OCC1=CC2C(=O)OC3CC(CC=C(C)CC(C)C=CC=C4COC(C1O)C42O)OC1(CCC(C)C(C)O1)C3` (stereo not drawn) [KSB-1939L3β], the “Solubility in organic solvents” value (Solubility) is reported as “Soluble”, the Solubility in water (Solubility) is reported as “Insoluble” and the “Distinction of basic, acidic or neutral” value [5] is reported as “Neutral”.

Work on `CCC1OC2(CCC1C)CC1CC(CC=C(C)CC(C)C=CC=C3COC4C(O)C(COC(=O)C=C(C)C)=CC(C(=O)O1)C34O)O2` (stereo not shown) [KSB-1939S5] yielded a mortality at 0.04 ppm (Twospotted Spider Mite [1]) of 45.7%, a mortality at 0.2 ppm (Twospotted Spider Mite [1]) of 100% and a mortality at 1 ppm (Twospotted Spider Mite [1]) of 100%. For the same compound, the “Solubility in organic solvents” value (Solubility) was “Soluble”, the Solubility in water (Solubility) was “Insoluble” and the LC50 (Twospotted Spider Mite [3]) was 0.0339 µg/mL (≈ 0.0529 µM). The LD50 [4] was greater than 5000 mg/kg, the “Distinction of basic, acidic or neutral” value [5] was “Neutral” and the LC50 [6] was 3.5 µg/mL (≈ 5.46 µM). It also gave a mortality at 1 ppm (Brown Rice Planthopper) of 85%, a mortality at 5 ppm (Brown Rice Planthopper) of 100% and an LC50 (Kanzawa spider mite) of 0.0643 µg/mL (≈ 0.1 µM).

For `CC1=C[C@H]2C(=O)O[C@H]3C[C@@H](C/C=C(\C)C[C@@H](C)/C=C/C=C4\CO[C@H]([C@@H]1O)[C@@]42O)O[C@@]1(CC[C@H](C)[C@@H](C(C)C)O1)C3` [Milbemycin D, reference compound], the LC50 [6] was 7.5 µg/mL (≈ 13.5 µM).

For Milbemycin [reference compound], the “LC50 Twospotted spider mite” value (Twospotted Spider Mite [3]; twospotted spider mite, in vivo) was 0.339 ppm and the “LC50 Kanzawa spider mite” value (Kanzawa spider mite; kanzawa spider mite, in vivo) was 0.485 ppm.

Source: patent US5091311A, “The production of KSB-1939 macrolides using STR eptomyces hygroscopicus” (Kumiai Chemical Industry Co., Ltd., priority 1987, dated 1992)
